In patent publication US8008328B2, “Methods for the treatment of diabetes-associated dyslipdemia” (Reddy US Therapeutics, Inc., priority 2007, dated 2011):

Columns and labels:
[1] = system: insulin receptor substrate (IRS-1); assay: IRS-1 Ser307 phosphorylation in differentiated 3T3L1 adipocytes (Western blot); assay type: cell-based, Murine; settings: FIG. 1; for IRS-1 phosphorylation: agent alone compared to untreated, 3T3L1 adipocytes
db/db mice = assay: Plasma insulin and lipids in db/db diabetic mouse model; assay type: in vivo
Method: The animals were 40 Female db/db diabetic mice, 4 weeks old on a diet of normal rodent chow. The tests were conducted on five groups, with 7-8 mice per group.
Group 1: Control CMC-tween, oral pipetting, 7 mice. Once a day for 28 days, 60 μl/mouse.
Group 2: Niacin 2.5 g/kg (roughly), in drinking water for 28 days, 7 mice (10 mg/mL in water).
Once a day for 28 days, 30 ul/mouse. (2 mg/mL in water)
Group 5: Pioglitazone 30 mg/kg/day, oral pipetting, 7 mice. Once a day for 28 days, 60 μL/mouse. (15 mg/mL in Vehicle)
Body weight was measured in all groups once a week. Food consumption was monitored once a week. All animals were fasted for 4 hours and plasma glucose levels were measured by OneTouch™ Ultra blood glucose meter. 35 animals were divided to 5 groups with 7 mice per group base on plasma glucose level. (Plasma glucose >120 mg/dL as a cut off for animal selection). 200 μL blood samples were collected from retro-orbital vein for plasma insulin level and lipids profile at baseline.
Treatment started for all groups and lasted for 28 days. 4 hours fast blood samples were collected for plasma insulin level and lipids profile at 2 weeks and 4 weeks post dose. The Oral Glucose Tolerance Test (“OGTT”) was conducted at day 16 and day 30 post dose.

THP-1 = assay: Niacin-induced PGD2 secretion in PMA-differentiated THP-1 macrophages; assay type: cell-based, human; settings: FIG. 4
[2] = db/db diabetic dyslipidemia model, FIG. 3

Row | Molecule | effect on TNFα-induced IRS1 phosphorylation ([1]; cells incubated with compound 2 hours prior to TNFα (20 ng/mL, 30 minutes)) | insulin levels (db/db mice; db/db mice, 2 mg/kg/day for two weeks) | plasma insulin (db/db mice; db/db mice, treatment up to 28 days, FIG. 2) | effect on niacin's ability to increase HDL or decrease triglycerides (db/db mice; meloxicam added to niacin, db/db mice, FIG. 3) | effect on niacin-induced increase in PGD2 levels (THP-1; compound 30 minutes prior to niacin) | IRS-1 phosphorylation [1] | HDL (db/db mice; [2]) | triglycerides (db/db mice; [2]) | PGD2 levels in culture medium (THP-1; compared to controls)
1 | Cc1cnc(NC(=O)C2=C(O)c3ccccc3S(=O)(=O)N2C)s1 [meloxicam] | inhibited | reduced | significantly reduced | did not affect | inhibited | – | – | – | –
2 | TNFα | – | – | – | – | – | increased | – | – | –
3 | O=C(O)c1cccnc1 [niacin, pyridine-3-carboxylic acid] | – | – | – | – | – | significantly increased | increase | decrease | increased
